Laboratory results taken from paper PMC4913548 (OncoTargets and therapy, 2016).

Biological target: estrogen receptor α (Homo sapiens, UniProt P03372)
Assay: ERE-Luc/catD-Luc reporter assay in SH-SY5Y cells
Assay type: cell-based

Sequence of estrogen receptor α (P03372 whole entry): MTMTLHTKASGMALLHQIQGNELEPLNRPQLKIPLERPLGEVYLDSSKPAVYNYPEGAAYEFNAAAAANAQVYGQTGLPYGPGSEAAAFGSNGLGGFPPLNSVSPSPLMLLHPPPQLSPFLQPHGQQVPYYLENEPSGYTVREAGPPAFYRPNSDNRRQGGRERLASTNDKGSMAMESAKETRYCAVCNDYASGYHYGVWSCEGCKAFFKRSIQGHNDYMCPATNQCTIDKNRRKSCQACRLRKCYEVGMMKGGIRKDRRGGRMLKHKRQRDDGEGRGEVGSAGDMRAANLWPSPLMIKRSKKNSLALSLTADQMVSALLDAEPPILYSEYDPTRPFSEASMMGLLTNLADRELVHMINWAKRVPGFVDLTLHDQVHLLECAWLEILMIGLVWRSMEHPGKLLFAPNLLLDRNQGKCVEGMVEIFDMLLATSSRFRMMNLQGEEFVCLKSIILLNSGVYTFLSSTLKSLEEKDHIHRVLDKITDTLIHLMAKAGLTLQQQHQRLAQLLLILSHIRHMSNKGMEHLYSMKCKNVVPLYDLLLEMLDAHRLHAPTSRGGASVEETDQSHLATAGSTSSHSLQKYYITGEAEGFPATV

nonylphenol gave an EC50 of 580 ± 250 nM.
